Measurements as given in patent publication US20090118330A1, “Diurea derivatives” (priority 2004, published 2009).
Where a name gives a salt, the structure may show the parent alone. Read-outs that look alike come from different tables or passages of the source.

How the values were obtained:
Assay type in all cases: cell-based
[1] = test system: human T-cells; assay: Induction of apoptosis in human T-cells; settings: Annexin V, PARP cleavage, DNA fragmentation methods
Protocol: The induction of apoptosis can be observed by measuring Annexin V-binding to cells (Van Engeland et al. 1998). Primary human CD4^+ T cells were isolated from peripheral blood from healthy volunteers as described above. Cells were cultured immediately after purification at a density of 2×10^6 cells/ml in RPMI 1640 medium supplemented with 10% FCS, Gentamycin (100 μg/ml), Hepes (10 mM) and Sodium Pyruvate (1 mM). Cells were stained with annexin V-FITC and propidium iodide by using the ApoAlert Annexin V-FITC Apoptosis Kit (Clontech) according to manufacturer's instructions. Flow cytometry analysis was performed using a FACScan (Becton Dickinson). […] Cell lysates were prepared by lysing 2×10^6 PBS-washed cells in 50 μl buffer containing 20 mM Tris-HCl, pH 7.7, 250 mM NaCl, 3 mM EDTA, 3 mM EGTA 0.5% NP-40 supplemented with 1 mM p-nitrophenyl phosphate (PNPP), 10 mM β-glycerophosphate, 100 μM Na-vanadate and 1 mM phenylmethansulfonyl fluoride (PMSF). The protein concentrations were determined by using Bio-Rads protein assay and thereafter equal amounts of protein was loaded onto precasted NuPAGE™ Tris-Bis gels (Novex). After electrophoresis, the proteins were transferred to nitrocellulose membrane and probed with a polyclonal rabbit antibody directed against PARP (Roche). […]

[2] = test system: TNF-α production in human peripheral blood mononuclear cells; assay: Inhibition of PMA/Ionomycin stimulated TNF-α production in human PBMC; settings: mean±S.D., n=3
[3] = test system: IL-6 production in human peripheral blood mononuclear cells; assay: Inhibition of PMA/Ionomycin stimulated IL-6 production in human PBMC; settings: mean±S.D., n=3
[4] = test system: IL-2 production in human T-cells (CD4+); assay: Inhibition of PMA/Ionomycin stimulated IL-2 production in human T-cells; settings: T-cell
Protocol: The compounds to be evaluated were dissolved in DMSO and the dilution series of the compounds were prepared in DMSO. The series were further diluted in cell culture medium (RPMI 1640 with ultraglutamine, 10% foetal calf serum (FCS)) to obtain a final assay concentration of DMSO of 0.1% in 200 μl total volume. The compounds were plated (2 μl/well) on opaque white assay plates together with controls.
Peripheral blood mononuclear cells (PBMC) were isolated from human blood drawn from healthy volunteers, by density gradient separation over Ficoll-Paque. T-cells (CD4+) were obtained with positive selection using magnetic cell sorting (MACS). The cells were resuspended at 1×10^6 cells/ml in cell culture medium (RPMI 1640 with ultraglutamine, 10% FCS, 10 mM hepes, 1 mM sodium pyruvate and 0.1 mg/ml gentamicin).
The cells (1×10^5/well) were added to the assay plates containing the diluted compounds and pre-incubated for 30 min at 37° C. in a humidified atmosphere of 5% carbon dioxide. The cells were stimulated with 10 ng/ml phorbol myristate acetate (PMA) and 250 ng/ml ionomycin and the plates were incubated for 4 hours at 37° C. in a humidified atmosphere of 5% carbon dioxide. Approximately 100 μl of the supernatants were removed and transferred to a separate microtiter plate and the remaining cells were lysed (Nucleotide Releasing Reagent, ViaLight™, Cambrex). All the plates were kept at −20° C. pending analysis. Human interleukin-2 (IL-2) was analysed with a standard ELISA kit (OptEIA™, Pharmingen) according to the manufacturer's instructions. Viability was assessed by measuring adenosine triphosphate (ATP) content by adding luciferase (ATP monitoring reagent, ViaLight™, Cambrex) to the lysed cells and measuring luminescence, all according to the manufacturer's specifications.
The % effect of each concentration of compound was calculated compared to non-treated stimulated cells. Non-linear regression, a modified Hill-plot (y=(a−d)/(1+(x/c)b)+d) was used to calculate the concentration for y=50% (IC50).

[5] = test system: IFN-γ production in human peripheral blood mononuclear cells; assay: Inhibition of PMA/Ionomycin stimulated IFN-γ production in human PBMC; settings: mean±S.D., n=3
[6] = mean, n = 2, read-out: IC50 IL-2

CCN(CC)CCN(CCNC(=O)Nc1cccc(C(F)(F)F)c1)C(=O)Nc1cccc(C(F)(F)F)c1.Cl [Compound A, 1-(2-Diethylamino-ethyl)-3-(3-trifluoromethyl-phenyl)-1-{2-[3-(3-trifluoromethyl-phenyl)-ureido]-ethyl}-urea, hydrochloride]
concentration at which significant apoptosis induction was observed [1]: > 4 µM | IC50 [2]: 3 ± 1 µM | IC50 [3]: 3 ± 1 µM | IC50 [4, 6]: 2 µM | IC50 ([4]; mean±S.D., n=30, read-out: IC50 of IL-2 production): 2 ± 1 µM | IC50 [5]: 4 ± 1 µM

CCN(CC)CCN(CCNC(=O)Nc1cccc(C(F)(F)F)c1)C(=O)Nc1ccc(C(F)(F)F)cc1 [Compound B, 1-(2-Diethylamino-ethyl)-3-(4-trifluoromethyl-phenyl)-1-{2-[3-(3-trifluoromethyl-phenyl)-ureido]-ethyl}-urea]
IC50 [4, 6]: 2 µM

O=C(NCCN(CCN1CCCC1)C(=O)Nc1ccc(Cl)cc1)Nc1ccc(Cl)cc1 [Compound C, 3-(4-Chloro-phenyl)-1-{2-[3-(4-chloro-phenyl)-ureido]-ethyl}-1-(2-pyrrolidin-1-yl-ethyl)-urea]
IC50 [4, 6]: 2 µM

O=C(NCCN(CCN1CCCCC1)C(=O)Nc1cccc(Cl)c1)Nc1cccc(C(F)(F)F)c1 [Compound D, 1-{2-[3-(3-Chloro-phenyl)-1-(2-piperidin-1-yl-ethyl)ureido]-ethyl}-3-(3-trifluoromethyl-phenyl)-urea]
IC50 [4, 6]: 2 µM

CN(C)CCN(CCNC(=O)Nc1ccc(Br)cc1)C(=O)Nc1ccc(Br)cc1 [Compound E, 3-(4-Bromo-phenyl)-1-{2-[3-(4-bromo-phenyl)-ureido]-ethyl}-1-(2-dimethylamino-ethyl)-urea]
IC50 [4, 6]: 1 µM

CCN(CC)CCN(CCNC(=O)Nc1ccccc1)C(=O)Nc1ccc(C(F)(F)F)cc1 [Compound F, 1-(2-Diethylamino-ethyl)-1-[2-(3-phenyl-ureido)-ethyl]-3-(4-trifluoromethyl-phenyl)-urea]
IC50 [4, 6]: 3 µM

O=C(NCCN(CCN1CCCCC1)C(=O)Nc1ccc(C(F)(F)F)cc1)Nc1cccc(C(F)(F)F)c1 [Compound G, 1-(2-Piperidin-1-yl-ethyl)-3-(4-trifluoromethyl-phenyl)-1-{2-[3-(3-trifluoromethyl-phenyl)-ureido]-ethyl}-urea]
IC50 [4, 6]: 1 µM

O=C(NCCN(CCN1CCCC1)C(=O)Nc1ccc(C(F)(F)F)cc1)Nc1cccc(C(F)(F)F)c1 [Compound H, 1-{2-[1-(2-Pyrrolidin-1-yl-ethyl)-3-(4-trifluoromethylphenyl)-ureido]-ethyl}-3-(3-trifluoromethyl-phenyl)-urea]
IC50 [4, 6]: 1 µM

O=C(NCCN(CCN1CCCC1)C(=O)Nc1ccc(C(F)(F)F)cc1)Nc1ccc2ncccc2c1 [Compound I, 1-{2-[1-(2-Pyrrolidin-1-yl-ethyl)-3-(4-trifluoromethylphenyl)-ureido]-ethyl}-3-quinolin-6-yl-urea]
IC50 [4, 6]: 5 µM

O=C(NCCN(CCN1CCCC1)C(=O)Nc1ccc(C(F)(F)F)cc1)Nc1ccc(C(F)(F)F)cc1 [Compound J, 1-(2-Pyrrolidin-1-yl-ethyl)-3-(4-trifluoromethyl-phenyl)-1-{2-[3-(4-trifluoromethyl-phenyl)-ureido]-ethyl}-urea]
IC50 [4, 6]: 3 µM

O=C(NCCN(CCN1CCCCC1)C(=O)Nc1cccc(C(F)(F)F)c1)Nc1cccc(C(F)(F)F)c1 [Compound K, 1-(2-Piperidin-1-yl-ethyl)-3-(3-trifluoromethyl-phenyl)-1-{2-[3-(3-trifluoromethyl-phenyl)-ureido]-ethyl}-urea]
IC50 [4, 6]: 2 µM

CN(C)CCN(CCNC(=O)Nc1ccc(Cl)cc1)C(=O)Nc1ccc(C(F)(F)F)cc1 [Compound L, 1-{2-[3-(4-Chloro-phenyl)-ureido]-ethyl}-1-(2-dimethylamino-ethyl)-3-(4-trifluoromethyl-phenyl)-urea, hydrochloride]
IC50 [4, 6]: 2 µM

CCN(CC)CCN(CCNC(=O)Nc1cc(Cl)nc(Cl)c1)C(=O)Nc1ccc(Br)cc1 [Compound M, 1-{2-[3-(4-Bromo-phenyl)-1-(2-diethylamino-ethyl)ureido]-ethyl}-3-(2,6-dichloro-pyridin-4-yl)-urea]
IC50 [4, 6]: 2 µM
